# Measured values taken from patent US20190343828A1, “CAMPTOTHECIN PEPTIDE CONJUGATES” (SEATTLE GENETICS, INC., priority 2018, published 2019).
# What was measured:
# [1] = test system: pancreatic cancer cells (BxPC3); experiment: In vitro cytotoxicity, CellTiter-Glo 96 h, BxPC3; details: Homo sapiens, BXPC-3, read-out: Cytotoxic potency (IC50 class), BxPC3
# Method: (§1) In vitro potency was assessed on multiple cancer cell lines. All cell lines were authenticated by STR profiling at IDEXX Bioresearch and cultured for no more than 2 months after resuscitation. Cells cultured in log-phase growth were seeded for 24 hours in 96-well plates containing 150 μl RPMI 1640 supplemented with 20% FBS. Serial dilutions of antibody-drug conjugates in cell culture media were prepared at 4× working concentrations, and 50 μl of each dilution was added to the 96-well plates. Following addition of test articles, cells were incubated with test articles for 4 days at 37° C. After 96 hours, growth inhibition was assessed by CellTiter-Glo® (Promega, Madison, Wis.) and luminescence was measured on a plate reader.
# (§2) Cell viability was determined by CellTiter-Glo staining after 96 h exposure to ADC.
# [2] = test system: Burkitt's lymphoma cells (Ramos); experiment: In vitro cytotoxicity, CellTiter-Glo 96 h, Ramos; details: Homo sapiens, read-out: Cytotoxic potency as free drug, IC50, Ramos
# Method: as §1, §2
# [3] = test system: renal carcinoma cells (786-O); experiment: In vitro cytotoxicity, CellTiter-Glo 96 h, 786-O; details: Homo sapiens, 786-0, read-out: Cytotoxic potency (IC50 class), 786-O
# Method: as §1, §2
# [4] = test system: acute promyelocytic leukemia cells (HL-60); experiment: In vitro cytotoxicity, CellTiter-Glo 96 h, HL-60; details: Homo sapiens, HL-60, read-out: Cytotoxic potency (IC50 class), HL-60
# Method: as §1
# (§3) Cell viability was determined by CellTiter-Glo staining after 96 h exposure to ADC. […] Ag1 is an antibody targeting a ubiquitous and readily internalizable antigen on cancer cells, Ag2 is cAC10 antibody targeting CD30(+) cancer cells, Ag3 is h1F6 antibody targeting CD70(+) cancer cells, Ag4 is hMEM102 antibody targeting CD48(+) cancer cells, Ag5 is h20F3 antibody targeting NTB-A expressing cancer cells, and h00 is a non-binding control antibody.
# [5] = test system: multiple drug resistant acute promyelocytic leukemia cells (HL-60/RV); experiment: In vitro cytotoxicity, CellTiter-Glo 96 h, HL60/RV; details: Homo sapiens, HL-60, read-out: Cytotoxic potency (IC50 class), HL60/RV
# Method: as §1, §2
# [6] = test system: acute myeloid leukemia cells (MOLM13); experiment: In vitro cytotoxicity, CellTiter-Glo 96 h, MOLM13; details: Homo sapiens, MOLM-13, read-out: Cytotoxic potency as free drug, IC50, MOLM13
# Method: as §1, §2
# [7] = test system: B-lymphocyte cancer cells (U266); experiment: In vitro cytotoxicity, CellTiter-Glo 96 h, U266; details: Homo sapiens, U-266, read-out: Cytotoxic potency as free drug, IC50, U266
# Method: as §1, §3
# [8] = test system: B-lymphocyte cancer cells (SU-DHL-4); experiment: In vitro cytotoxicity, CellTiter-Glo 96 h, SU-DHL-4; details: Homo sapiens, SU-DHL-4, read-out: Cytotoxic potency as free drug, IC50, SU-DHL-4
# Method: as §1, §3
# [9] = test system: melanoma cells (SK-MEL-5); experiment: In vitro cytotoxicity, CellTiter-Glo 96 h, SK-MEL-5; details: Homo sapiens, SK-MEL-5, read-out: Cytotoxic potency as free drug, IC50, SK-MEL-5
# Method: as §1, §3
# [10] = test system: Hodgkin's lymphoma cells (L540cy); experiment: In vitro cytotoxicity, CellTiter-Glo 96 h, L540cy; details: read-out: Cytotoxic potency (IC50 class), L540cy
# Method: as §1, §2
# [11] = test system: multiple myeloma cells (MM.1R); experiment: In vitro cytotoxicity, CellTiter-Glo 96 h, MM.1R; details: read-out: Cytotoxic potency (IC50 class), MM.1R
# Method: as §1, §3
Structure (SMILES),IC50 [1] [nM],IC50 [2] [nM],IC50 [3] [nM],IC50 [4] [nM],IC50 [5] [nM],IC50 [6] [nM],IC50 [7] [nM],IC50 [8] [nM],IC50 [9] [nM],IC50 [10] [nM],IC50 [11] [nM]
CCCCNCc1c2c(nc3cc4c(cc13)OCO4)-c1cc3c(c(=O)n1C2)COC(=O)[C@]3(O)CC [Compound 5k],1 to 10,1 to 10,1 to 10,10 to 100,1 to 10,1 to 10,1 to 10,1 to 10,1 to 10,1 to 10,1 to 10
CC[C@@]1(O)C(=O)OCc2c1cc1n(c2=O)Cc2c-1nc1cc3c(cc1c2CNCc1ccc(OC)cc1)OCO3 [Compound 5l],10 to 100,1 to 10,10 to 100,10 to 100,10 to 100,1 to 10,10 to 100,1 to 10,10 to 100,10 to 100,1 to 10
CC[C@@]1(O)C(=O)OCc2c1cc1n(c2=O)Cc2c-1nc1cc3c(cc1c2CNCCC(c1ccccc1)c1ccccc1)OCO3 [Compound 5o],10 to 100,1 to 10,10 to 100,100 to 1000,10 to 100,10 to 100,10 to 100,10 to 100,10 to 100,1 to 10,10 to 100
CC[C@@]1(O)C(=O)OCc2c1cc1n(c2=O)Cc2c-1nc1cc3c(cc1c2CN(CCO)CCO)OCO3 [Compound 5p],10 to 100,1 to 10,10 to 100,100 to 1000,100 to 1000,10 to 100,10 to 100,10 to 100,10 to 100,10 to 100,1 to 10
CC[C@@]1(O)C(=O)OCc2c1cc1n(c2=O)Cc2c-1nc1cc3c(cc1c2CN(CCN)CCO)OCO3 [Compound 5q],100 to 1000,10 to 100,10 to 100,100 to 1000,100 to 1000,10 to 100,10 to 100,10 to 100,100 to 1000,10 to 100,10 to 100
CC[C@@]1(O)C(=O)OCc2c1cc1n(c2=O)Cc2c-1nc1cc3c(cc1c2CNc1ccc(F)cc1)OCO3 [Compound 5r],1 to 10,1 to 10,1 to 10,10 to 100,10 to 100,10 to 100,1 to 10,1 to 10,1 to 10,1 to 10,1 to 10
CC[C@@]1(O)C(=O)OCc2c1cc1n(c2=O)Cc2c-1nc1cc3c(cc1c2CNC12CC4CC(CC(C4)C1)C2)OCO3 [Compound 5s],10 to 100,10 to 100,10 to 100,100 to 1000,10 to 100,10 to 100,10 to 100,10 to 100,10 to 100,10 to 100,10 to 100
CC[C@@]1(O)C(=O)OCc2c1cc1n(c2=O)Cc2c-1nc1cc3c(cc1c2CN(C)CCN(C)C)OCO3 [Compound 5t],10 to 100,1 to 10,1 to 10,100 to 1000,10 to 100,10 to 100,10 to 100,1 to 10,10 to 100,1 to 10,1 to 10
CC[C@@]1(O)C(=O)OCc2c1cc1n(c2=O)Cc2c-1nc1cc3c(cc1c2CNCC1CCNCC1)OCO3 [Compound 5u],10 to 100,1 to 10,10 to 100,100 to 1000,100 to 1000,10 to 100,10 to 100,10 to 100,10 to 100,10 to 100,10 to 100
CC[C@@]1(O)C(=O)OCc2c1cc1n(c2=O)Cc2c-1nc1cc3c(cc1c2CNCCN(C)CCO)OCO3 [Compound 5w],10 to 100,1 to 10,10 to 100,100 to 1000,10 to 100,10 to 100,10 to 100,10 to 100,10 to 100,10 to 100,10 to 100
CC[C@@]1(O)C(=O)OCc2c1cc1n(c2=O)Cc2c-1nc1cc3c(cc1c2CN(C)CCNC)OCO3 [Compound 5x],100 to 1000,10 to 100,10 to 100,100 to 1000,100 to 1000,10 to 100,10 to 100,10 to 100,10 to 100,10 to 100,10 to 100
CC[C@@]1(O)C(=O)OCc2c1cc1n(c2=O)Cc2c-1nc1cc3c(cc1c2CNCCOCCOCCN)OCO3 [Compound 5y],1 to 10,0.1 to 1,1 to 10,10 to 100,10 to 100,1 to 10,1 to 10,1 to 10,1 to 10,1 to 10,1 to 10
CC[C@@]1(O)C(=O)OCc2c1cc1n(c2=O)Cc2c-1nc1cc3c(cc1c2CNCCc1ccccc1)OCO3 [Compound 5z],10 to 100,1 to 10,1 to 10,10 to 100,10 to 100,10 to 100,10 to 100,1 to 10,10 to 100,1 to 10,1 to 10
CCCc1c2c(nc3cc4c(cc13)OCO4)-c1cc3c(c(=O)n1C2)COC(=O)[C@]3(O)CC [Compound 6a],1 to 10,0.1 to 1,1 to 10,1 to 10,1 to 10,1 to 10,1 to 10,0.1 to 1,1 to 10,0.1 to 1,1 to 10
CC[C@@]1(O)C(=O)OCc2c1cc1n(c2=O)Cc2c-1nc1cc3c(cc1c2-c1ccccc1)OCO3 [Compound 6d],1 to 10,0.1 to 1,1 to 10,1 to 10,1 to 10,1 to 10,1 to 10,0.1 to 1,1 to 10,1 to 10,1 to 10
CCc1c2c(nc3cc4c(cc13)OCO4)-c1cc3c(c(=O)n1C2)COC(=O)[C@]3(O)CC [Compound 6e],1 to 10,0.1 to 1,0.1 to 1,1 to 10,1 to 10,1 to 10,1 to 10,0.1 to 1,1 to 10,0.1 to 1,0.1 to 1
CC[C@@]1(O)C(=O)OCc2c1cc1n(c2=O)Cc2c-1nc1cc3c(cc1c2CC(C)C)OCO3 [Compound 6f],1 to 10,1 to 10,1 to 10,10 to 100,1 to 10,1 to 10,1 to 10,1 to 10,1 to 10,1 to 10,1 to 10
CCC(CC)Cc1c2c(nc3cc4c(cc13)OCO4)-c1cc3c(c(=O)n1C2)COC(=O)[C@]3(O)CC [Compound 6g],1 to 10,0.1 to 1,1 to 10,10 to 100,1 to 10,1 to 10,1 to 10,1 to 10,1 to 10,1 to 10,1 to 10
CCCCCc1c2c(nc3cc4c(cc13)OCO4)-c1cc3c(c(=O)n1C2)COC(=O)[C@]3(O)CC [Compound 6h],1 to 10,0.1 to 1,0.1 to 1,10 to 100,10 to 100,10 to 100,1 to 10,0.1 to 1,1 to 10,1 to 10,1 to 10
CC[C@@]1(O)C(=O)OCc2c1cc1n(c2=O)Cc2c-1nc1cc3c(cc1c2C1CCCC1)OCO3 [Compound 6i],1 to 10,0.1 to 1,1 to 10,10 to 100,1 to 10,1 to 10,1 to 10,0.1 to 1,1 to 10,1 to 10,1 to 10
CC[C@@]1(O)C(=O)OCc2c1cc1n(c2=O)Cc2c-1nc1cc3c(cc1c2C1CCCCCC1)OCO3 [Compound 6j],1 to 10,0.1 to 1,1 to 10,10 to 100,1 to 10,1 to 10,1 to 10,1 to 10,1 to 10,1 to 10,1 to 10
